Converted amounts (≈) assume the structure as drawn. Where two headings read alike, the source gives them in different places.
Columns and labels:
Format in all cases: cell-based
Conditions in all cases: for IC50: Homo sapiens
SKMEL-2 (human melanoma) = assay: SRB assay, in vitro antitumor effect against SKMEL-2
Experimental: (§1) In vitro antitumor effect against human tumor cell lines.
(§2) b. 5×10^3 ~2×10^4 cells were added into each well of 96-well plate and cultured in 5% CO2 incubator, at 37° C., for 24 hours.
(§3) c. Each sample drug was dissolved in a little DMSO and diluted with the used medium to a prescribed concentration for experiments, wherein the final concentration of DMSO was controlled below 0.5%.
(§4) d. Medium of each well cultured for 24 hours as above b. was removed by aspiration. Each 200 μl of drug samples prepared in c. was added into each well and the wells were cultured for 48 hours. Tz(time zero) plates were collected at the point of time drugs were added.
(§5) e. According to the SRB assay method, cell fixing with TCA, staining with 0.4% SRB solution, washing with 1% acetic acid and elution of dye with 10 mM Tris solution were carried out on Tz plates and culture-ended plates, and then, OD values were measured at 520 nm.
(§6) a. Time zero(Tz) value was determined with measuring the SRB protein value at the point of time drugs were added.
(§7) b. Control value(C) was determined with the OD value of an well untreated with drug.
(§8) c. Drug-treated test value(T) was determined with the OD value of drug-treated well.
(§9) d. Effects of drugs were estimated with growth stimulation, net growth inhibition, net killing etc. calculated from Tz, C and T.
(§10) e. If T≥Tz, cellular response function was calculated by 100×(T-Tz)/(C-Tz), and if T<Tz, by 100×(T-Tz)/Tz.

[1] = system: A549 (human non-small lung cell); assay: SRB assay, in vitro antitumor effect against A549
Experimental: as §1, §2, §3, §4, §5, §6, §7, §8, §9, §10

XF 498 (human CNS) = assay: SRB assay, in vitro antitumor effect against XF 498
Experimental: as §1, §2, §3, §4, §5, §6, §7, §8, §9, §10

SKOV-3 (human ovarian) = assay: SRB assay, in vitro antitumor effect against SKOV-3
Experimental: as §1, §2, §3, §4, §5, §6, §7, §8, §9, §10

HCT-15 (human colon) = assay: SRB assay, in vitro antitumor effect against HCT-15
Experimental: as §1, §2, §3, §4, §5, §6, §7, §8, §9, §10

[2] = SK-MEL-2, 48 hours, read-out: ED50 (the source's name)
[3] = A549, 48 hours, read-out: ED50 (the source's name)
[4] = XF498, XF-498, 48 hours, read-out: ED50 (the source's name)
[5] = SK-OV-3, 48 hours, read-out: ED50 (the source's name)
[6] = HCT 15, 48 hours, read-out: ED50 (the source's name)

Compound | IC50 (SKMEL-2 (human melanoma); [2]) [µg/mL] | IC50 [1, 3] [µg/mL] | IC50 (XF 498 (human CNS); [4]) [µg/mL] | IC50 (SKOV-3 (human ovarian); [5]) [µg/mL] | IC50 (HCT-15 (human colon); [6]) [µg/mL] | other results
COc1nc(C)c(C(C)=O)cc1NC(=O)N1CCN(c2cc(C)cc(C)c2)CC1 [Example 47, 1-[(5-Acetyl-2-methoxy-6-methylpyridin-3-yl)aminocarbonyl]-4-(3,5-dimethylphenyl)piperazine] | 0.47 (≈ 1.19 µM) | 0.92 (≈ 2.32 µM) | 0.64 (≈ 1.61 µM) | 0.62 (≈ 1.56 µM) | 0.81 (≈ 2.04 µM) | –
C=Cc1cc(NC(=O)N2CCN(c3cc(F)cc(F)c3)CC2)c(OC)nc1C [Example 75, 1-[(2-Methoxy-6-methyl-5-vinylpyridin-3-yl)aminocarbonyl]-4-(3,5-difluorophenyl)piperazine] | 0.09 (≈ 0.232 µM) | 0.19 (≈ 0.489 µM) | 0.13 (≈ 0.335 µM) | 0.09 (≈ 0.232 µM) | 0.12 (≈ 0.309 µM) | –
COc1nc2ccccc2cc1NC(=O)N1CCN(c2cccc(Cl)c2)CC1 [Example 88, 1-[(2-Methoxyquinolin-3-yl)aminocarbonyl]-4-(3-chlorophenyl)piperazine] | 0.02 (≈ 0.0504 µM) | – | 0.009 (≈ 0.0227 µM) | 0.043 (≈ 0.108 µM) | – | IC50 ([1]; A549, 48 h, read-out: ED50): 0.014 µg/mL (≈ 0.0353 µM); IC50 (HCT-15 (human colon); HCT-15, 48 h, read-out: ED50): 0.011 µg/mL (≈ 0.0277 µM)
CCc1nc(OC)c(N(C)C(=O)N2CCN(c3cc(OC)cc(OC)c3)CC2)cc1C [Example 147, 1-[N-(6-Ethyl-2-methoxy-5-methylpyridin-3-yl)-N-methylaminocarbonyl]-4-(3,5-dimethoxyphenyl)piperazine] | – | 0.031 (≈ 0.0723 µM) | 0.466 (≈ 1.09 µM) | 0.092 (≈ 0.215 µM) | 0.18 (≈ 0.42 µM) | IC50 (SKMEL-2 (human melanoma); SK-MEL-2, 48 h, read-out: ED50): 0.024 µg/mL (≈ 0.056 µM)
COc1cccc2c1C(=O)c1c(O)c3c(c(O)c1C2=O)C[C@@](O)(C(=O)CO)C[C@@H]3O[C@H]1C[C@H](N)[C@H](O)[C@H](C)O1 [Adriamycin, reference compound] | – | – | – | – | – | IC50 (SKMEL-2 (human melanoma); SK-MEL-2, 48 h, read-out: ED50): 0.0108 µg/mL (≈ 0.0199 µM); IC50 ([1]; A549, 48 h, read-out: ED50): 0.0168 µg/mL (≈ 0.0309 µM); IC50 (XF 498 (human CNS); XF498, 48 h, read-out: ED50): 0.025 µg/mL (≈ 0.046 µM); IC50 (SKOV-3 (human ovarian); SK-OV-3, 48 h, read-out: ED50): 0.0176 µg/mL (≈ 0.0324 µM); IC50 (HCT-15 (human colon); HCT-15, 48 h, read-out: ED50): 1.67 µg/mL (≈ 3.07 µM)
COc1cc(OC)cc(N2CCN(C(=S)Nc3cc(C(C)O)c(C)nc3OC)CC2)c1 (stereo not drawn) [Example 63, 1-{[5-(1-Hydroxyethyl)-2-methoxy-6-methylpyridin-3-yl]aminothiocarbonyl}-4-(3,5-dimethoxyphenyl)piperazine] | 0.11 (≈ 0.246 µM) | 0.04 (≈ 0.0896 µM) | 0.03 (≈ 0.0672 µM) | 0.1 (≈ 0.224 µM) | 0.07 (≈ 0.157 µM) | –
CCCc1nc(OC)c(NC(=O)N2CCN(c3cccc(O)c3)CC2)cc1C [Example 17, 1-[(2-Methoxy-5-methyl-6-propylpyridin-3-yl)aminocarbonyl]-4-(3-hydroxyphenyl)piperazine] | 0.021 (≈ 0.0546 µM) | 0.018 (≈ 0.0468 µM) | – | 0.01 (≈ 0.026 µM) | 0.008 (≈ 0.0208 µM) | IC50 (XF 498 (human CNS); XF498, 48 h, read-out: ED50): 0.077 µg/mL (≈ 0.2 µM)
CCCc1cc(NC(=O)N2CCN(c3ccccc3OC)CC2)c(OC)nc1C [Example 11, 1-[(2-Methoxy-6-methyl-5-propylpyridin-3-yl)aminocarbonyl]-4-(2-methoxyphenyl)piperazine] | 0.62 (≈ 1.56 µM) | 0.91 (≈ 2.28 µM) | 0.73 (≈ 1.83 µM) | 0.56 (≈ 1.41 µM) | 0.71 (≈ 1.78 µM) | –
N.N.[Cl][Pt][Cl] [Cisplatin, reference compound] | – | – | – | – | – | ED50 (SKMEL-2 (human melanoma); SK-MEL-2, 48 hours): 0.7147 µg/mL; ED50 ([1]; A549, 48 hours): 0.8184 µg/mL; ED50 (XF 498 (human CNS); XF-498, 48 hours): 0.7771 µg/mL; ED50 (SKOV-3 (human ovarian); SK-OV-3, 48 hours): 0.7134 µg/mL; ED50 (HCT-15 (human colon); HCT 15, 48 hours): 3.0381 µg/mL
COc1nc(C)c(C)cc1NC(=S)N1CCN(c2cc(F)cc(F)c2)CC1 [Example 23, 1-[(5,6-Dimethyl-2-methoxypyridin-3-yl)aminothiocarbonyl]-4-(3,5-difluorophenyl)piperazine] | 0.09 (≈ 0.229 µM) | 0.09 (≈ 0.229 µM) | 0.092 (≈ 0.234 µM) | 0.04 (≈ 0.102 µM) | 0.05 (≈ 0.127 µM) | –
COc1cc(OC)cc(N2CCN(C(=S)Nc3cc(C(C)=O)c(C)nc3OC)CC2)c1 [Example 53, 1-[(5-Acetyl-2-methoxy-6-methylpyridin-3-yl)aminothiocarbonyl]-4-(3,5-dimethoxyphenyl)piperazine] | 0.64 (≈ 1.44 µM) | 0.47 (≈ 1.06 µM) | 0.67 (≈ 1.51 µM) | 0.47 (≈ 1.06 µM) | 0.71 (≈ 1.6 µM) | –
C=C(C)c1ccccc1N1CCN(C(=O)Nc2cc(CC)c(C)nc2OC)CC1 [Example 5, 1-[(5-Ethyl-6-methyl-2-methoxypyridin-3-yl)aminocarbonyl]-4-(2-isopropenylphenyl)piperazine] | 0.6 (≈ 1.52 µM) | 0.71 (≈ 1.8 µM) | > 10 | 0.96 (≈ 2.43 µM) | 0.96 (≈ 2.43 µM) | –

Now from value to compound, other results behind:

IC50 (SKMEL-2 (human melanoma); [2]) [µg/mL] | IC50 [1, 3] [µg/mL] | IC50 (XF 498 (human CNS); [4]) [µg/mL] | IC50 (SKOV-3 (human ovarian); [5]) [µg/mL] | IC50 (HCT-15 (human colon); [6]) [µg/mL] | Compound | other results
0.039 (≈ 0.0904 µM) | 0.048 (≈ 0.111 µM) | 0.104 (≈ 0.241 µM) | 0.117 (≈ 0.271 µM) | 0.1 (≈ 0.232 µM) | COc1nc2ccccc2cc1NC(=O)N1CCN(c2cc(Cl)cc(Cl)c2)CC1 [Example 85, 1-[(2-Methoxyquinolin-3-yl)aminocarbonyl]-4-(3,5-dichlorolphenyl)piperazine] | –
0.007 (≈ 0.0171 µM) | 0.004 (≈ 0.00974 µM) | 0.007 (≈ 0.0171 µM) | 0.008 (≈ 0.0195 µM) | 0.037 (≈ 0.0901 µM) | COc1nc(C)c(C(C)=O)cc1N(C)C(=O)N1CCN(c2cc(C)cc(C)c2)CC1 [Example 151, 1-[N-(5-Acetyl-2-methoxy-6-methylpyridin-3-yl)-N-methylaminocarbonyl]-4-(3,5-dimethylphenyl)piperazine] | –
0.008 (≈ 0.0209 µM) | 0.021 (≈ 0.0548 µM) | 0.072 (≈ 0.188 µM) | 0.068 (≈ 0.177 µM) | 0.56 (≈ 1.46 µM) | COc1cc(C)c(C)cc1NC(=S)N1CCN(c2cc(C)cc(C)c2)CC1 [Example 198, 1-[(4,5-Dimethyl-2-methoxyphenyl)aminothiocarbonyl]-4-(3,5-dimethylphenyl)piperazine] | –
0.0121 (≈ 0.0282 µM) | 0.0004 (≈ 0.000933 µM) | 0.0009 (≈ 0.0021 µM) | 0.0095 (≈ 0.0222 µM) | 0.0108 (≈ 0.0252 µM) | CCc1cc(N(C)C(=O)N2CCN(c3cc(OC)cc(OC)c3)CC2)c(OC)nc1C [Example 143, 1-[N-(5-Ethyl-2-methoxy-6-methylpyridin-3-yl)-N-methylaminocarbonyl]-4-(3,5-dimethoxyphenyl)piperazine] | –
0.86 (≈ 1.96 µM) | 0.47 (≈ 1.07 µM) | 0.53 (≈ 1.21 µM) | 0.91 (≈ 2.08 µM) | 0.49 (≈ 1.12 µM) | COc1cc(OC)cc(N2CCN(C(=S)Nc3cc4ccccc4nc3OC)CC2)c1 [Example 109, 1-[(2-Methoxyquinolin-3-yl)aminothiocarbonyl]-4-(3,5-dimethoxyphenyl)piperazine] | –
0.021 (≈ 0.0442 µM) | 0.015 (≈ 0.0316 µM) | 0.026 (≈ 0.0548 µM) | 0.011 (≈ 0.0232 µM) | 0.017 (≈ 0.0358 µM) | COc1ccc(C)c(N2CCN(C(=O)N(Cc3ccccc3)c3cc(C)c(C)nc3OC)CC2)c1 [Example 142, 1-[N-Benzyl-N-(5,6-dimethyl-2-methoxypyridin-3-yl)aminocarbonyl]-4-(5-methoxy-2-methylphenyl)piperazine] | –
0.4 (≈ 0.888 µM) | 0.43 (≈ 0.954 µM) | 0.52 (≈ 1.15 µM) | 0.41 (≈ 0.91 µM) | 0.36 (≈ 0.799 µM) | CCN(C(=O)N1CCN(c2cc(OC)cc(OC)c2)CC1)c1cc2ccccc2nc1OC [Example 99, 1-[N-Ethyl-N-(2-methoxyquinolin-3-yl)aminocarbonyl]-4-(3,5-dimethoxyphenyl)piperazine] | –
0.002 (≈ 0.00484 µM) | 0.004 (≈ 0.00967 µM) | 0.443 (≈ 1.07 µM) | 0.008 (≈ 0.0193 µM) | 0.017 (≈ 0.0411 µM) | COc1cc(OC)cc(N2CCN(C(=O)N(C)c3cc(C)c(C)cc3OC)CC2)c1 [Example 190, 1-[N-(4,5-Dimethyl-2-methoxyphenyl)-N-methylaminocarbonyl]-4-(3,5-dimethoxyphenyl)piperazine] | –
0.72 (≈ 2.03 µM) | 1.04 (≈ 2.93 µM) | 0.74 (≈ 2.08 µM) | 0.98 (≈ 2.76 µM) | 0.63 (≈ 1.77 µM) | COc1cc(C)c(C)cc1NC(=O)N1CCN(c2cccc(O)c2)CC1 [Example 179, 1-[(4,5-Dimethyl-2-methoxyphenyl)aminocarbonyl]-4-(3-hydroxylphenyl)piperazine] | –

Source: patent US6028195A, “Piperazine derivatives and process for the preparation thereof” (Samjin Pharmaceutical Co., Ltd., priority 1996, dated 2000)
